{"source": "paper PMC9083112", "about": "“D-Allulose (D-Psicose) Biotransformation From Allitol by a Newly Found NAD(P)-Dependent Alcohol Dehydrogenase From Gluconobacter frateurii NBRC 3264 and the Enzyme Characterization” (Frontiers in Microbiology, 2022)", "target": "T1, NAD(P)-dependent alcohol dehydrogenase (ADH) (Gluconobacter frateurii, UniProt Z9DFN4ZG31)", "T1 construct": "primers encode N-terminal MAQALVLEK and C-terminal DVKLQIVL", "T1 sequence (Z9DFN4ZG31 1-345)": "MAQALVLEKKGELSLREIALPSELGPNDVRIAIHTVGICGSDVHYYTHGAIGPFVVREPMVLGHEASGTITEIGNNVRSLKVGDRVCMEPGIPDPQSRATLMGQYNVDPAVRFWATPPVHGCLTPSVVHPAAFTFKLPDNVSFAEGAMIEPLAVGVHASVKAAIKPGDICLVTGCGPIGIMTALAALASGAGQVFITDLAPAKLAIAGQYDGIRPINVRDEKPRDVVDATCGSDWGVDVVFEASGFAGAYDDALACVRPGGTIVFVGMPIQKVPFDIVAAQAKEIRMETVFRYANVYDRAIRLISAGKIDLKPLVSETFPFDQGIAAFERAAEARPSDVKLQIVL", "assay": "global fit (genetic algorithm) of HPLC time courses at […] allitol", "assay_type": "biochemical", "conditions": "product inhibition, noncompetitive form with exponent alpha 1.326; one ki shared by fits with and without Co2+; allitol as substrate; NAD+ 2 mM, pH 7.0, 50 °C; purified or crude enzyme not stated"}
{"smiles": "OCC1(O)OC[C@@H](O)[C@@H](O)[C@H]1O", "note": "(stereo partly drawn) [D-allulose]", "values": [{"measurement": "Ki", "result": 10.7, "unit": "mM"}]}
